SMILES strings stand for the structures. Where a name gives a salt, the structure may show the parent alone.

Assay [1] has as its system bacterial strains that express the class D cephalosporinase OXA-15. Description: Synergy MIC / standard BLI potentiation MIC assay, strains expressing OXA-15. Type of assay: cell-based, E. coli. The following applies: in the presence of a β-lactam; comparator Avibactam (comparator compound CCC). The method in brief: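 Broth microdilution in CAMHB per CLSI, ~10^5 CFU/mL, 18-20 h at 37° C; MIC is lowest concentration with no visible turbidity. Potentiation: β-lactam 128-0.13 μg/mL with BLI fixed at 4 μg/mL. Synergy: BLI serially diluted with β-lactam fixed. Engineered E. coli kept on 25 μg/mL tetracycline.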

For assay [2], the system named is bacterial strains that express KPC β-lactamases. The experiment in a line: Synergy MIC / standard BLI potentiation MIC assay, strains expressing KPC β-lactamases. Format: cell-based. The following applies: more active for at least one KPC strain and/or better spectrum of activity than Avibactam; in the presence of a β-lactam. On the procedure: The experimental protocol was performed according to Clinical and Laboratory Standards Institute (CLSI) guidelines with modifications as described below (CLSI guidelines can be derived from the CLSI document M07-A9 published in January 2012: “Methods for Dilution Antimicrobial Susceptibility Tests for Bacteria That Grow Aerobically; Approved Standard-Ninth Edition”).
To prepare for MIC testing, frozen glycerol stocks of clinical isolates (Klebsiella pneumoniae, Eschericia coli, Enterobacter spp, Citrobacter spp, or Pseudomonas aeruginosa) were used to streak for isolated colonies on rich, non-selective, tryptic soy agar containing 5% sheep's blood (TSAB). Frozen glycerol stocks of laboratory engineered, isogenic E. coli strains, which contain cloned β-lactamase expressing plasmids were used to streak for isolated colonies on rich, selective LB agar supplemented with 25 μg/mL tetracycline to maintain the plasmid. All strains were incubated at 37° C. for 18-24 hrs.
On the day of testing, primary cultures were started by scraping off 5-10 colonies from the TSAB plates containing clinical strains or the tetracycline supplemented LB plates containing engineered strains. The clinical strain material was suspended in ˜5 mL of cation adjusted Mueller Hinton Broth (CAMHB) in 14 mL culture tubes. The engineered strain material was suspended in CAMHB (supplemented with 25 μg/mL tetracycline) in 14 mL culture tubes. All strains were incubated at 37° C. with aeration (200 rpm) for ˜2 hrs until the optical density at 600 nm (OD600) was ≧0.1.
The two compound components of the assay were each diluted in CAMHB and added to the 96-well broth microdilution assay plates. 50 μL of the β-lactam was added to each well of the assay plate in 2-fold dilutions with final concentrations ranging from 128 to 0.13 μg/mL. 25 μL of the BLI compound was added to all wells in the broth microdilution plates at a final concentration of 4 μg/mL. Inoculum cultures were prepared by standardizing the primary cultures to OD600=0.1 and then adding 20 μL of the adjusted primary culture per 1 mL CAMHB for clinical strains or CAMHB (supplemented with tetracycline at 100 μg/mL) for engineered strains, so that the final inoculum density was ˜10^5 colony forming units per milliliter. Diluted inoculum cultures were used to inoculate 25 μL per well in 96-well broth microdilution assay plates. The final volume of each well was 100 μL and contained a β-lactam at different concentrations, a BLI compound at 4 μg/mL concentration, the bacterial culture at an OD600 of approximately 0.001 and when necessary tetracycline at 25 μg/mL.
Plates were incubated for 18-20 hours at 37° C. with aeration (200 rpm). Following incubation, growth was confirmed visually placing plates over a viewing apparatus (stand with a mirror underneath) and then OD600 was measured using a SpectraMax 340PC384 plate reader (Molecular Devices, Sunnyvale, Calif.). Growth was defined as turbidity that could be detected with the naked eye or achieving minimum OD600 of 0.1. MIC values were defined as the lowest concentration producing no visible turbidity.
The synergy MIC (sMIC) assay determines the concentration of the BLI required to potentiate the activity of a fixed concentration of a β-lactam antibiotic against β-lactamase producing bacterial strains. The experimental protocol was performed according to Clinical and Laboratory Standards Institute (CLSI) guidelines with modifications as described below (CLSI guidelines can be derived from the CLSI document M07-A9 published in January 2012: “Methods for Dilution Antimicrobial Susceptibility Tests for Bacteria That Grow Aerobically; Approved Standard-Ninth Edition”). […]

Turning to `O=C1N2C[C@@H](CC[C@H]2c2nnc(CN3CCNCC3)o2)N1OS(=O)(=O)O` [Compound 777, (2S,5R)-7-oxo-2-(5-(piperazin-1-ylmethyl)-1,3,4-oxadiazol-2-yl)-1,6-diazabicyclo[3.2.1]octan-6-yl hydrogen sulfate], the “activity against bacterial strains that express the class D cephalosporinase OXA-15, compared with Avibactam” value in assay [1] is recorded as “more active than Avibactam”. For the same compound, in assay [2], the “activity and/or spectrum of activity against bacterial strains that express KPC β-lactamases, compared with Avibactam” value is reported as “more active than Avibactam”.

Take `N=C1NCC(c2nnc([C@@H]3CC[C@@H]4CN3C(=O)N4OS(=O)(=O)O)o2)N1` (stereo partly drawn) [Compound 767, (2S,5R)-2-(5-(2-iminoimidazolidin-4-yl)-1,3,4-oxadiazol-2-yl)-7-oxo-1,6-diazabicyclo[3.2.1]octan-6-yl hydrogen sulfate]: the “activity against bacterial strains that express the class D cephalosporinase OXA-15, compared with Avibactam” value in assay [1] is recorded as “more active than Avibactam”. Further, the “activity and/or spectrum of activity against bacterial strains that express KPC β-lactamases, compared with Avibactam” value in assay [2] was “more active than Avibactam”.

With `N=C(N)Nc1nnc([C@@H]2CC[C@@H]3CN2C(=O)N3OS(=O)(=O)O)o1` [Compound 738, (2S,5R)-2-(5-guanidino-1,3,4-oxadiazol-2-yl)-7-oxo-1,6-diazabicyclo[3.2.1]octan-6-yl hydrogen sulfate], the “activity against bacterial strains that express the class D cephalosporinase OXA-15, compared with Avibactam” value in assay [1] is “more active than Avibactam”. Further, the “activity and/or spectrum of activity against bacterial strains that express KPC β-lactamases, compared with Avibactam” value in assay [2] was “more active than Avibactam”.

For `O=C1N2C[C@@H](CC[C@H]2c2nnc(CN[C@@H]3CCNC3)o2)N1OS(=O)(=O)O` [Compound 766, (2S,5R)-7-oxo-2-(5-(((R)-pyrrolidin-3-ylamino)methyl)-1,3,4-oxadiazol-2-yl)-1,6-diazabicyclo[3.2.1]octan-6-yl hydrogen sulfate], the “activity against bacterial strains that express the class D cephalosporinase OXA-15, compared with Avibactam” value in assay [1] is “more active than Avibactam”. In addition, the “activity and/or spectrum of activity against bacterial strains that express KPC β-lactamases, compared with Avibactam” value in assay [2] is “more active than Avibactam”.

Consider `N=C(N)NC1(Cc2nnc([C@@H]3CC[C@@H]4CN3C(=O)N4OS(=O)(=O)O)o2)CC1` [Compound 739, (2S,5R)-2-(5-((1-guanidinocyclopropyl)methyl)-1,3,4-oxadiazol-2-yl)-7-oxo-1,6-diazabicyclo[3.2.1]octan-6-yl hydrogen sulfate], for which the “activity against bacterial strains that express the class D cephalosporinase OXA-15, compared with Avibactam” value in assay [1] is recorded as “more active than Avibactam”. In addition, the “activity and/or spectrum of activity against bacterial strains that express KPC β-lactamases, compared with Avibactam” value in assay [2] is “more active than Avibactam”.

Take `N[C@H]1C[C@H](c2nnc([C@@H]3CC[C@@H]4CN3C(=O)N4OS(=O)(=O)O)s2)C1` [Compound 783, (2S,5R)-2-(5-((1r,3S)-3-aminocyclobutyl)-1,3,4-thiadiazol-2-yl)-7-oxo-1,6-diazabicyclo[3.2.1]octan-6-yl hydrogen sulfate]: in assay [1], the “activity against bacterial strains that express the class D cephalosporinase OXA-15, compared with Avibactam” value is given as “more active than Avibactam”. The “activity and/or spectrum of activity against bacterial strains that express KPC β-lactamases, compared with Avibactam” value in assay [2] is given as “more active than Avibactam”.

Regarding `N=C(N)NC[C@H](O)c1nnc([C@@H]2CC[C@@H]3CN2C(=O)N3OS(=O)(=O)O)o1` [Compound 732, (2S,5R)-2-(5-((S)-2-guanidino-1-hydroxyethyl)-1,3,4-oxadiazol-2-yl)-7-oxo-1,6-diazabicyclo[3.2.1]octan-6-yl hydrogen sulfate], the “activity against bacterial strains that express the class D cephalosporinase OXA-15, compared with Avibactam” value in assay [1] is on record as “more active than Avibactam”. In addition, the “activity and/or spectrum of activity against bacterial strains that express KPC β-lactamases, compared with Avibactam” value in assay [2] is recorded as “more active than Avibactam”.

Regarding `O=C1N2C[C@@H](CC[C@H]2c2nnc(C3CCNC3)o2)N1OS(=O)(=O)O` (stereo partly drawn) [Compound 710, (2S,5R)-7-oxo-2-(5-(pyrrolidin-3-yl)-1,3,4-oxadiazol-2-yl)-1,6-diazabicyclo[3.2.1]octan-6-yl hydrogen sulfate], the “activity against bacterial strains that express the class D cephalosporinase OXA-15, compared with Avibactam” value in assay [1] was “more active than Avibactam”. For the same compound, the “activity and/or spectrum of activity against bacterial strains that express KPC β-lactamases, compared with Avibactam” value in assay [2] is listed as “more active than Avibactam”.

Source of the values: patent US20140315876A1, “BETA-LACTAMASE INHIBITORS” (priority 2013, published 2014).
